What was measured:
[1] = tested on: mitochondrial membrane potential; assay: TMRE mitochondrial membrane potential staining in Mut6 cells; format: cell-based, mouse; settings: within 30 min
Description: TMRE mitochondrial membrane potential assay kit was purchased from Abcam (113852) and the assay was performed according to the manufacturer's protocol. Briefly, cells were pre-incubated with 1 μM 12M11 (10 min or 18 hrs) or 100 nM FCCP (10 min) and incubated for additional 20 min with 200 nM TMRE before pictures were taken.

Mut6 [2] = assay: Cytotox testing (CellTiter-Glo ATP assay) in Mut6 cells; format: cell-based, mouse; settings: CellTiter-Glo
Description: (§1) Mut6 tumor cells were cultured in DMEM/F12 media supplemented by EGF (10 ng/mL), basic FGF (10 ng/mL), heparin (4 ug/mL), glucose (total 21 mM), NaHCO3 (113 μg/mL), Hepes (119 μg/mL), glutamine (2 mM), sodium pyruvate (1 mM), N2 supplement (ThermoFisher Gibco 17502-048, 100×, at 100-fold dilution), B27 supplement (ThermoFisher Gibco 12587-010, 50×, at 100-fold dilution), and penicillin/streptomycin (ThermoFisher, final 1%). Cells were maintained in Ultra-low attachment plate (Corning) as sphere-forming cells. For ATP assays and protein/RNA isolation, cells were plated into 96-well plates or 6-well plated that were coated with poly-lysine (Sigma P6407, 10 μg/mL in PBS, 4 hr at 37° C.) and laminin (ThermoFisher 23017015, ˜5 mg/L in PBS, overnight at 37° C.). MEFs and Astrocytes were cultured in DMEM supplemented with 10% FBS and 1% Penicillin/Streptomycin.
2,000 cells were plated into each well of 96-well plates. About 3 hours later, cells were treated by 12M11, at 800-fold dilution (4 mM stock was diluted into 5 μM final concentration). […] CellTiter-Glo assay (Promega) was performed according to manufacturer's instructions, by adding 20 μL of reagent into each well. Luminescence signal was detected by the PolarStar plate reader (BMG Labtech). Experiments were performed in quadruplicate, and results are presented with mean average −/+ standard deviation. EC505 were calculated by GraphPad Prism6 software.
The compounds described herein were tested using a cell-based cytotoxicity assay against neuronal stem cells in Mut6, which is a mouse glioblastoma model cell line.

astrocytes = assay: Cytotox testing (CellTiter-Glo) in astrocytes; format: cell-based
Description: as §1
2,000 cells were plated into each well of 96-well plates. About 3 hours later, cells were treated by 12M11, at 800-fold dilution (4 mM stock was diluted into 5 μM final concentration). Cells were further incubated for 4 days. CellTiter-Glo assay (Promega) was performed according to manufacturer's instructions, by adding 20 μL of reagent into each well. Luminescence signal was detected by the PolarStar plate reader (BMG Labtech). Experiments were performed in quadruplicate, and results are presented with mean average −/+ standard deviation. EC505 were calculated by GraphPad Prism6 software.

ATF4 = ATF4 western blot in Mut6 cells; format: cell-based, mouse
Description: (§2) Mut6 tumor cells and MEFs were treated by DMSO or 1 μM 12M11 for the indicated times. Cell lysate was prepared by RIPA buffer with phosphatase inhibitor (Thermo) and protease inhibitor (Roche). Antibodies are purchased from Santa Cruz (ATF4), Cell Signaling (pS6, S6, AMPK, and pAMPK), and Millipore (Gapdh).

Phospho-S6 = assay: p-S6 western blot in Mut6 cells; format: cell-based, mouse
Description: as §2

Mut6 [3] = assay: Change in ATP levels in Mut6 cells; format: cell-based, mouse; settings: Mut6, 2-6 hr
Description: (§3) Mut6 tumor cells or MEFs were plated into 96-well plates. One day later, Oligomyin (2 μM), Rotenone (200 nM), or 12M11 (1 μM) were added into each well and then ATP levels were measured by Cell-Titer Glo (Promega) after 2 hr, 4 hr, or 6 hr incubation. Each data is mean of six replicates with ± standard deviation.

MEF = assay: Change in ATP levels in MEF cells; format: cell-based, mouse; settings: 2-6 hr
Description: as §3

| SMILES | oxidative phosphorylation / mitochondrial membrane potential by TMRE staining [1] | activity against Mut6 cells (Mut6 [2]) | activity against astrocytes (astrocytes) | ATF4 protein level (ATF4) | Phospho-S6 protein level (Phospho-S6) | ATP levels (% change from basal) (Mut6 [3]) | ATP levels (% change from basal) (MEF) |
| --- | --- | --- | --- | --- | --- | --- | --- |
| N#CC(C#N)=NNc1ccc(OC(F)(F)F)cc1 [FCCP, reference compound] | impairs oxidative phosphorylation | – | – | – | – | – | – |
| CC[C@H]1/C=C/C=C/C[C@@H](C)[C@H](O)[C@@](C)(O)C(=O)[C@@H](C)[C@H](O)[C@@H](C)C(=O)[C@@H](C)[C@H](O)[C@@H](C)/C=C/C(=O)O[C@@H]2[C@H](C)[C@H](CC1)O[C@]1(CC[C@H](C)[C@H](C[C@@H](C)O)O1)[C@H]2C [oligomycin] | – | sensitive | sensitive | induction | suppression | decrease significantly | increase |
| C=C(C)[C@H]1Cc2c(ccc3c2O[C@@H]2COc4cc(OC)c(OC)cc4[C@@H]2C3=O)O1 [rotenone] | – | sensitive | sensitive | induction | suppression | decrease significantly | increase |

Reference: US20180354909A1, “SUBSTITUTED BENZIMIDAZOLIUM, PYRIDO-IMIDAZOLIUM, OR PYRAZINO-IMIDAZOLIUM COMPOUNDS AS CHEMOTHERAPEUTICS” (The Board of Regents of the University of Texas System, priority 2015, published 2018)
